Experimental findings from patent US12209087B2, “AKT1 modulators” (Alterome Therapeutics, Inc., priority 2022, dated 2025) are described below.

What is called IC50 is the midpoint of a concentration-inhibition curve.

One test deals with T1, full length AKT E17K (Homo sapiens, UniProt P31749, E17K).
T1 construct: host or cells: HEK-293 (ATCC CRL-1573)
T1 sequence (P31749 whole entry E17K): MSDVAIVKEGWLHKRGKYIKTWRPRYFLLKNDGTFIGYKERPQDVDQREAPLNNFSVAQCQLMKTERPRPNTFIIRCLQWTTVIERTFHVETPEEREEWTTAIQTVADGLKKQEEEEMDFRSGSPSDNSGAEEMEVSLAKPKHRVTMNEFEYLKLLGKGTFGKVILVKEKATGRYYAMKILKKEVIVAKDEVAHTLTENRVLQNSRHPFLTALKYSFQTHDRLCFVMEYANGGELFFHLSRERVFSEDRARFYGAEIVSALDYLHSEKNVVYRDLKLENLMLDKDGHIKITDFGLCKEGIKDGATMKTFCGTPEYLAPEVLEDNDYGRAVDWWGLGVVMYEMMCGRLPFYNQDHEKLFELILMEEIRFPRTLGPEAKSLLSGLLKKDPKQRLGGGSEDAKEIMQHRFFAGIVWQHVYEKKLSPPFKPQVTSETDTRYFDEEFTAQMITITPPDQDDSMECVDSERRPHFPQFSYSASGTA
The test can be described thus: NanoBRET Target Engagement (TE) Assay. It is filed as cell-based. As to conditions: competitive displacement of tracer in cells, read-out: AKT1 E17K IC50. The method, boiled down: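 Compound and tracer incubated 2 h before luminescence at donor 450 nm and acceptor 600 nm, with extracellular signal inhibited. EC50 by sigmoidal variable-slope regression.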
(In BRET a luciferase serves as donor, and the signal depends on an acceptor being close.)
As to `N#Cc1nccc(NC2CCN(Cc3ccc(-n4c(-c5cccnc5N)nc5ccc(C(F)(F)F)nc54)cc3)CC2)n1` [Example 410, 4-((1-(4-(2-(2-Aminopyridin-3-yl)-5-(trifluoromethyl)-3H-imidazo[4,5-b]pyridin-3-yl)benzyl)piperidin-4-yl)amino)pyrimidine-2-carbonitrile], the IC50 is under 15 nM.

`N#Cc1ncnc(N2CCC3(CCN(Cc4ccc(-n5c(-c6cccnc6N)nc6ccc(-c7ccccc7)nc65)cc4)CC3)C2)n1` [Example 363, 4-(8-(4-(2-(2-Aminopyridin-3-yl)-5-phenyl-3H-imidazo[4,5-b]pyridin-3-yl)benzyl)-2,8-diazaspiro[4.5]decan-2-yl)-1,3,5-triazine-2-carbonitrile]: the IC50 was in the range of 15 to 60 nM.

Regarding `CN1CCCN(c2ccc3nc(-c4cccnc4N)n(-c4ccc(CN5CCN(c6ccnc(C#N)n6)CC5)cc4)c3n2)CC1=O` [Example 386, 4-(4-(4-(2-(2-Aminopyridin-3-yl)-5-(4-methyl-3-oxo-1,4-diazepan-1-yl)-3H-imidazo[4,5-b]pyridin-3-yl)benzyl)piperazin-1-yl)pyrimidine-2-carbonitrile], the IC50 is 15 to 60 nM.

For the compound `[2H]C([2H])([2H])n1ncc(-c2ccc3nc(-c4nccnc4N)n(-c4ccc(CN5CCC(Nc6ccnc(C#N)n6)CC5)cc4)c3n2)n1` [Example 621, 4-((1-(4-(2-(3-Aminopyrazin-2-yl)-5-(2-(methyl-d3)-2H-1,2,3-triazol-4-yl)-3H-imidazo[4,5-b]pyridin-3-yl)benzyl)piperidin-4-yl)amino)pyrimidine-2-carbonitrile], the IC50 is under 15 nM.

`CC1(Nc2ccnc(C#N)n2)CCN(Cc2ccc(-n3c(-c4cccnc4N)nc4cccnc43)cc2)CC1` [Example 392, 4-((1-(4-(2-(2-Aminopyridin-3-yl)-3H-imidazo[4,5-b]pyridin-3-yl)benzyl)-4-methylpiperidin-4-yl)amino)pyrimidine-2-carbonitrile]: the IC50 lay in the range of 60 to 600 nM.

On to `Cc1cn(-c2ccc3nc(-c4cccnc4N)n(-c4ccc(CN5CCC(Nc6ccnc(C#N)n6)CC5)cc4)c3n2)nn1` [Example 593, 4-((1-(4-(2-(2-Aminopyridin-3-yl)-5-(4-methyl-1H-1,2,3-triazol-1-yl)-3H-imidazo[4,5-b]pyridin-3-yl)benzyl)piperidin-4-yl)amino)pyrimidine-2-carbonitrile], for which the 50% inhibitory concentration (IC50) is under 15 nM.

As to `Cc1nn(C)nc1-c1ccc2nc(-c3cccnc3N)n(-c3ccc(CN4CCC(Nc5ccnc(C#N)n5)CC4)cc3)c2n1` [Example 614, 4-((1-(4-(2-(2-Aminopyridin-3-yl)-5-(2,5-dimethyl-2H-1,2,3-triazol-4-yl)-3H-imidazo[4,5-b]pyridin-3-yl)benzyl)piperidin-4-yl)amino)pyrimidine-2-carbonitrile], the IC50 was under 15 nM.

Take `N#Cc1nccc(NC2CCN(Cc3ccc(-n4c(-c5cccnc5N)nc5ccc(-c6ccc[nH]c6=O)nc54)cc3)CC2)n1` [Example 538, 4-((1-(4-(2-(2-Aminopyridin-3-yl)-5-(2-hydroxypyridin-3-yl)-3H-imidazo[4,5-b]pyridin-3-yl)benzyl)piperidin-4-yl)amino)pyrimidine-2-carbonitrile]: the IC50 was in the range of 15 to 60 nM.

With `N#Cc1ccnc(NC2CCN(Cc3ccc(-n4c(-c5cccnc5N)nc5ccc(-c6cccc(F)c6)nc54)cc3)CC2)n1` [Example 358, 2-((1-(4-(2-(2-Aminopyridin-3-yl)-5-(3-fluorophenyl)-3H-imidazo[4,5-b]pyridin-3-yl)benzyl)piperidin-4-yl)amino)pyrimidine-4-carbonitrile], the IC50 was in the range of 15 to 60 nM.

On to `N#Cc1nccc(NC2CCN(Cc3ccc(-n4c(-c5cccnc5N)nc5ccc(-c6cnco6)nc54)cc3)CC2)n1` [Example 462, 4-((1-(4-(2-(2-Aminopyridin-3-yl)-5-(oxazol-5-yl)-3H-imidazo[4,5-b]pyridin-3-yl)benzyl)piperidin-4-yl)amino)pyrimidine-2-carbonitrile], for which the IC50 was under 15 nM.

As for `CC(C)C(=O)Nc1cccc(-c2ccc3nc(-c4cccnc4NC(=O)C(C)C)n(-c4ccc(CN5CCC(Nc6ccnc(C#N)n6)CC5)cc4)c3n2)c1` [Example 519, N-(3-(3-(4-((4-((2-cyanopyrimidin-4-yl)amino)piperidin-1-yl)methyl)phenyl)-2-(2-isobutyramidopyridin-3-yl)-3H-imidazo[4,5-b]pyridin-5-yl)phenyl)isobutyramide], the IC50 is 15 to 60 nM.

On to `N#Cc1nccc(NC2CCN(Cc3ccc(-n4c(-c5cccnc5N)nc5ccc(-c6ccc(F)cc6Cl)nc54)cc3)CC2)n1` [Example 498, 4-((1-(4-(2-(2-Aminopyridin-3-yl)-5-(2-chloro-4-fluorophenyl)-3H-imidazo[4,5-b]pyridin-3-yl)benzyl)piperidin-4-yl)amino)pyrimidine-2-carbonitrile], for which the half-inhibitory concentration (IC50) was 15 to 60 nM.

Regarding `N#Cc1ncnc(N2CCN(Cc3ccc(-n4c(-c5cccnc5N)nc5ccc(-c6ccc(F)cc6)nc54)cc3)CC2)n1` [Example 368, 4-(4-(4-(2-(2-Aminopyridin-3-yl)-5-(4-fluorophenyl)-3H-imidazo[4,5-b]pyridin-3-yl)benzyl)piperazin-1-yl)-1,3,5-triazine-2-carbonitrile], the IC50 was under 15 nM.

Turning to `N#Cc1ccnc(-c2ccc3nc(-c4cccnc4N)n(-c4ccc(CN5CCC(Nc6ccnc(C#N)n6)CC5)cc4)c3n2)c1` [Example 548, 4-((1-(4-(2-(2-Aminopyridin-3-yl)-5-(4-cyanopyridin-2-yl)-3H-imidazo[4,5-b]pyridin-3-yl)benzyl)piperidin-4-yl)amino)pyrimidine-2-carbonitrile], the IC50 is under 15 nM.

Regarding `N#Cc1nccc(NC2CCN(Cc3ccc(-n4c(-c5cccnc5N)nc5ccc(O)nc54)cc3)CC2)n1` [Example 496, 4-((1-(4-(2-(2-Aminopyridin-3-yl)-5-hydroxy-3H-imidazo[4,5-b]pyridin-3-yl)benzyl)piperidin-4-yl)amino)pyrimidine-2-carbonitrile], the half-maximal inhibitory concentration (IC50) lay within 15 to 60 nM.

Still in this test, the particulars now being: competitive tracer displacement in living cells, read-out: AKT1 E17K IC50.
Take `N#Cc1cncc(C(=O)N2CCN(Cc3ccc(-n4c(-c5cccnc5N)nc5cccnc54)cc3)CC2)c1` [Example 79, 5-(4-(4-(2-(2-Aminopyridin-3-yl)-3H-imidazo[4,5-b]pyridin-3-yl)benzyl)piperazine-1-carbonyl)nicotinonitrile]: the IC50 was in the range of 600 to 10000 nM.

Take `N#Cc1nccc(N2CCN(Cc3ccc(-n4c(-c5cccnc5N)nc5ccc(-c6ccccc6)nc54)cc3)CC23CC3)n1` [Example 198, 4-(7-(4-(2-(2-Aminopyridin-3-yl)-5-phenyl-3H-imidazo[4,5-b]pyridin-3-yl)benzyl)-4,7-diazaspiro[2.5]octan-4-yl)pyrimidine-2-carbonitrile]: the IC50 was 15 to 60 nM.

With `C[C@@H]1CN(Cc2ccc(-n3c(-c4cccnc4N)nc4ccc(-c5ccccc5)nc43)cc2)CCN1c1cc(C#N)ncn1` [Example 227, (R)-6-(4-(4-(2-(2-Aminopyridin-3-yl)-5-phenyl-3H-imidazo[4,5-b]pyridin-3-yl)benzyl)-2-methylpiperazin-1-yl)pyrimidine-4-carbonitrile], the IC50 lay in the range of 60 to 600 nM.

As for `CC(=O)Nc1cccc(-c2ccc3nc(-c4cccnc4N)n(-c4ccc(CN5CCN(c6cnnc(C#N)c6)CC5)cc4)c3n2)c1` [Example 43, N-(3-(2-(2-Aminopyridin-3-yl)-3-(4-((4-(6-cyanopyridazin-4-yl)piperazin-1-yl)methyl)phenyl)-3H-imidazo[4,5-b]pyridin-5-yl)phenyl)acetamide], the half-maximal inhibitory concentration (IC50) fell in the range of 60 to 600 nM.

With `CC(=O)Nc1cccc(-c2ccc3nc(-c4cccnc4N)n(-c4ccc(CN5CCN(c6ccnc(C#N)c6)CC5)cc4)c3n2)c1` [Example 37, N-(3-(2-(2-Aminopyridin-3-yl)-3-(4-((4-(2-cyanopyridin-4-yl)piperazin-1-yl)methyl)phenyl)-3H-imidazo[4,5-b]pyridin-5-yl)phenyl)acetamide], the IC50 was in the range of 15 to 60 nM.

`N#Cc1ccnc(OC2CCN(Cc3ccc(-n4c(-c5cccnc5N)nc5ccc(-c6ccccc6)nc54)cc3)CC2)c1` [Example 8, 2-((1-(4-(2-(2-Aminopyridin-3-yl)-5-phenyl-3H-imidazo[4,5-b]pyridin-3-yl)benzyl)piperidin-4-yl)oxy)isonicotinonitrile]: the IC50 fell in the range of 600 to 10000 nM.

Take `N#Cc1ccnc(C(=O)N2CCN(Cc3ccc(-n4c(-c5cccnc5N)nc5ccc(-c6ccccc6)nc54)cc3)CC2)c1` [Example 140, 2-(4-(4-(2-(2-Aminopyridin-3-yl)-5-phenyl-3H-imidazo[4,5-b]pyridin-3-yl)benzyl)piperazine-1-carbonyl)isonicotinonitrile]: the IC50 lay in the range of 60 to 600 nM.

As to `N#Cc1ncccc1C(=O)NC1CCN(Cc2ccc(-n3c(-c4cccnc4N)nc4ccc(-c5ccccc5)nc43)cc2)CC1` [Example 58, N-(1-(4-(2-(2-Aminopyridin-3-yl)-5-phenyl-3H-imidazo[4,5-h]pyridin-3-yl)benzyl)piperidin-4-yl)-2-cyanonicotinamide], the 50% inhibitory concentration (IC50) is under 15 nM.

`N#Cc1ncnc(N2CCCC3(CCN(Cc4ccc(-n5c(-c6cccnc6N)nc6ccc(-c7ccccc7)nc65)cc4)C3)C2)n1` (centres unmarked) [Example 253, 4-(2-(4-(2-(2-Aminopyridin-3-yl)-5-phenyl-3H-imidazo[4,5-b]pyridin-3-yl)benzyl)-2,7-diazaspiro[4.5]decan-7-yl)-1,3,5-triazine-2-carbonitrile]: the IC50 is 15 to 60 nM.

`N#Cc1ncnc(NC2CCCN(Cc3ccc(-n4c(-c5cccnc5N)nc5ccc(-c6ccccc6)nc54)cc3)CC2)n1` (centres unmarked) [Example 278, 4-((1-(4-(2-(2-Aminopyridin-3-yl)-5-phenyl-3H-imidazo[4,5-b]pyridin-3-yl)benzyl)azepan-4-yl)amino)-1,3,5-triazine-2-carbonitrile]: the IC50 lay in the range of 15 to 60 nM.

Turning to `N#Cc1ncnc(N2CCN(Cc3ccc(-n4c(-c5cccnc5N)nc5ccc(N6CCOCC6)nc54)cc3)CC2)n1` [Example 292, 4-(4-(4-(2-(2-Aminopyridin-3-yl)-5-morpholino-3H-imidazo[4,5-b]pyridin-3-yl)benzyl)piperazin-1-yl)-1,3,5-triazine-2-carbonitrile], the IC50 was under 15 nM.
